The source of these data is patent EP4227307A1 (Genzyme Corporation, priority 2022, dated 2023).

Structures can show the parent of a compound that is named as a salt.

For the experiment, the target named is T1, human recombinant 6His-Nterm SHP2 full-length (Thr2-Arg593) (Homo sapiens, UniProt Q06124).
T1 construct: 6His-Nterm SHP2 full-length (Thr2-Arg593, R&D system); 6His (N); purchased R&D system
T1 sequence (Q06124 2-593): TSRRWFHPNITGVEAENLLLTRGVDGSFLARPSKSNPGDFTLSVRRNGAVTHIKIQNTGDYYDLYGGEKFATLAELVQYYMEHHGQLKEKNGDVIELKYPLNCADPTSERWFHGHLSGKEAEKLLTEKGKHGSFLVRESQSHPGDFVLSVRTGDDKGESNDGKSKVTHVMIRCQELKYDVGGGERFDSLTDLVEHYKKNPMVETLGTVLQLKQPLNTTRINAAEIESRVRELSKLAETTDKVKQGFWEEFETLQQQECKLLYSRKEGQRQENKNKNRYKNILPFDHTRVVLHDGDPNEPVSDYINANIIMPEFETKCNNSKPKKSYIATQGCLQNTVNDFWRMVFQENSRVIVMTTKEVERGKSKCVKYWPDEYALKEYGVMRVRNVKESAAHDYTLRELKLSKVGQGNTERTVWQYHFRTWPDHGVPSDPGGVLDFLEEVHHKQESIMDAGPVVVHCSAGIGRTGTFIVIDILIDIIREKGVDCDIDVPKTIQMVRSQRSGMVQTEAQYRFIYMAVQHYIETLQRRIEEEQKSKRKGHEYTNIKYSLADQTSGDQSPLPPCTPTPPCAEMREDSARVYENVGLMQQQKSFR
The experiment is described as follows: SHP2 Phosphatase Assay (DiFMUP fluorescence). It is filed as biochemical. The settings on record: SHP2 0.2 nM pre-incubated with 100 nM bi-phosphorylated activating peptide; compound 1000-0.05 nM, 30 min pre-incubation; DiFMUP 20 µM, 45 min, room temperature; 10-concentration dose-response. The method, then:
Inhibition of SHP2 phosphatase activity was evaluated using human recombinant 6His-Nterm SHP2 full-length (Thr2-Arg593, R&D system), NsCs bi-phosphorylated activating peptide (NH2-LN(pY)AQLWHA(PEG8)LTI(pY)ATIRRF-Amide.acetate, Thermofischer Scientific) and DiFMUP as surrogate phosphatase substrate (Molecular Probes). All reactions were performed at room temperature in 384-well black polystyrene non-binding plate (Corning) with the assay buffer (50 mM HEPES-NaOH pH 7.2, 100 mM NaCl, 0.5 mM EDTA, 0.001% Brij35 including 0.02% BSA and 1 mM DTT added extemporaneously). SHP2 was pre-incubated at least 10 min with the activating peptide (0.2 nM and 100 nM, respectively). 10 µL of this mixture was added to the assay plate, that already contained 15 nL of the compound (1000-0.05 nM). After 30 min pre-incubation, the enzymatic reaction was initiated by the addition of 5 µL DiFMUP in assay buffer without BSA (20 µM). The reaction was stopped by the addition of 15 µL sodium pervanadate solution (100 µM) after 45 min incubation. The fluorescence signal was measured at excitation and emission wavelengths of 350 nm and 450 nm, respectively, using a Pherastar instrument (BMG-LabTech). Percentage of inhibition […] were calculated from the fluorescence signal at 450 nm of the positive and negative control using the following formula: I% = ((signal Max−signal Sample)/(signal Max−signal Min control)) × 100 [formula]
Positive control (Max): corresponds to the maximum fluorescence signal obtained in the presence of 15 nL DMSO replacing the inhibitor in the pre-incubation step.
Negative control (Min): corresponds to the minimum signal obtained in the presence of 1 µM of RMC-4550, the structure of which is shown below: [drawing 464]
The IC50 were then calculated from a dose-response curve of 10 concentrations of tested compound using the 4-parameter logistic model: I% = A + (C)/(1 + exp(−B×log(X)−M)) [formula]
The parameters A and (A+C) are the lower and upper limits, B is the slope of the curve at the inflexion point, M parameter is the logarithm of the abscissa at the inflexion point, and X is the concentration of compound.
One may read the IC50 as the midpoint of a concentration-inhibition curve. Turning to `Cc1nc(N2CCC3(CC2)Cc2ncccc2[C@H]3N)c2ccnn2c1-c1ccc2ccn(C)c2c1` [Compound 184, (5S)-1'-[6-methyl-7-(1-methylindol-6-yl)pyrazolo[1,5-a]pyrazin-4-yl]spiro[5,7-dihydrocyclopenta[b]pyridine-6,4'-piperidine]-5-amine], the IC50 amounted to 11 nM.

In the case of `Cc1nc(N2CCC3(CC2)Cc2ncccc2[C@H]3N)c2ccnn2c1C1=CCOCC1` [Compound 196, (5S)-1'-[7-(3,6-dihydro-2H-pyran-4-yl)-6-methyl-pyrazolo[1,5-a]pyrazin-4-yl]spiro[5,7-dihydrocyclopenta[b]pyridine-6,4'-piperidine]-5-amine], the IC50 was found to be 83 nM.

For the compound `CCn1cc(-c2c(C)nc(N3CCC4(CC3)Cc3ncccc3[C@H]4N)c3ccnn23)cn1` [Compound 48, (5S)-1'-[7-(1-ethylpyrazol-4-yl)-6-methyl-pyrazolo[1,5-a]pyrazin-4-yl]spiro[5,7-dihydrocyclopenta[b]pyridine-6,4'-piperidine]-5-amine], the IC50 was 17 nM.

For the compound `CC(=O)c1ccc(F)c(-c2c(C)nc(N3CCC4(CC3)Cc3ncccc3[C@H]4N)c3ccnn23)c1` [Compound 204, 1-[4-fluoro-3-[6-methyl-4-[(5S)-5-aminospiro [5,7-dihydrocyclopenta[b]pyridine-6,4'-piperidine]-1'-yl]pyrazolo[1,5-a]pyrazin-7-yl]phenyl]ethanone], the IC50 is 55 nM.

As for `Cc1nc(N2CCC3(CC2)Cc2ncc(C(F)F)cc2[C@H]3N)c2ccnn2c1-c1cnn(C)c1C` [Compound 55, (5S)-3-(difluoromethyl)-1'-[7-(1,5-dimethylpyrazol-4-yl)-6-methyl-pyrazolo[1,5-a]pyrazin-4-yl]spiro [5,7-dihydrocyclopenta[b]pyridine-6,4'-piperidine]-5-amine], the IC50 is 30 nM.

Turning to `Cc1nc(N2CCC3(CC2)Cc2ncccc2[C@H]3N)c2ccnn2c1-c1cncc(Cl)c1` [Compound 199, (5S)-1'-[7-(5-chloro-3-pyridyl)-6-methyl-pyrazolo[1,5-a]pyrazin-4-yl]spiro[5,7-dihydrocyclopenta[b]pyridine-6,4'-piperidine]-5-amine], the IC50 came to 14 nM.

Regarding `Cc1nn(C)cc1-c1c(C)nc(N2CCC3(CC2)Cc2ncccc2[C@H]3N)c2ccnn12` [Compound 47, (5S)-1'-[7-(1,3-dimethylpyrazol-4-yl)-6-methyl-pyrazolo[1,5-a]pyrazin-4-yl]spiro [5,7-dihydrocyclopenta[b]pyridine-6,4'-piperidine]-5-amine], the IC50 turned out to be 154 nM.

Regarding `Cc1ncc(-c2c(C)nc(N3CCC4(CC3)Cc3ncccc3[C@H]4N)c3ccnn23)s1` [Compound 152, (5S)-1'-[6-methyl-7-(2-methylthiazol-5-yl)pyrazolo [1,5-a]pyrazin-4-yl]spiro[5,7-dihydrocyclopenta[b]pyridine-6,4'-piperidine] -5-amine], the IC50 stood at 9 nM.

Turning to `Cc1nccc(-c2c(C)nc(N3CCC4(CC3)Cc3cc(F)ccc3[C@H]4N)c3ccnn23)c1Cl` [Compound 217, (1S)-1'-[7-(3-Chloro-2-methyl-4-pyridyl)-6-methyl-pyrazolo[1,5-a]pyrazin-4-yl]-5-fluoro-spiro[indane-2,4'-piperidine]-1-amine formate], the IC50 was found to be 8 nM.

Turning to `Cc1nc(N2CCC3(CC2)Cc2ncccc2[C@H]3N)c2cc(CO)nn2c1-c1cccc(F)c1F` [Compound 37, [4-[(5S)-5-aminospiro[5,7-dihydrocyclopenta[b]pyridine-6,4'-piperidine]-1'-yl]-7-(2,3-difluorophenyl)-6-methyl-pyrazolo[1,5-a]pyrazin-2-yl]methanol], the IC50 came to 9 nM.

As to `COc1ccc2c(n1)CC1(CCN(c3nc(C)c(-c4ccccc4F)n4nccc34)CC1)[C@@H]2N` [Compound 56, (5S)-1'-[7-(2-fluorophenyl)-6-methyl-pyrazolo[1,5-a]pyrazin-4-yl]-2-methoxy-spiro[5,7-dihydrocyclopenta[b]pyridine-6,4'-piperidine]-5-amine], the IC50 came to 17 nM.
